Experimental data as given in ChEMBL document CHEMBL5625232, “Development of selective class I protein arginine methyltransferase inhibitors through fragment-based drug design approach” (Eur J Med Chem, 2023).
Calls of active or inactive are those of the source. The rule behind the calls is not given here.

Tests used:
[1] = biological target: T1, Protein arginine N-methyltransferase 3 (Homo sapiens, UniProt O60678); test: Displacement of 3H-SAM from human PRMT3 at 50 uM in presence of substrate by SPA assay
Target sequence in this assay (O60678 2-531 limits assumed): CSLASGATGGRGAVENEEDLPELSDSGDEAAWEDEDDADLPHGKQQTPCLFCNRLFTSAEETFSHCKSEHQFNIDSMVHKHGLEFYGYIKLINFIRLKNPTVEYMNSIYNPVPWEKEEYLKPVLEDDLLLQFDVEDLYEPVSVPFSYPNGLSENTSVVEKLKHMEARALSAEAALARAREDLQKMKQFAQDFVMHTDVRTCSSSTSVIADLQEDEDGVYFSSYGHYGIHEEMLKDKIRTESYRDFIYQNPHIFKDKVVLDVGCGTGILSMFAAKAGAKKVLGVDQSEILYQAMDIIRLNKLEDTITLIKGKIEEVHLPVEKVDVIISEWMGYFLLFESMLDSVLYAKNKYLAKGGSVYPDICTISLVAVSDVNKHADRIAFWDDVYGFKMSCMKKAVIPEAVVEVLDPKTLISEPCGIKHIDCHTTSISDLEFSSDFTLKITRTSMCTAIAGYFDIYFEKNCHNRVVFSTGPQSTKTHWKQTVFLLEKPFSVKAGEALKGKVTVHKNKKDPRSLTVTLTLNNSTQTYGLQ

[2] = biological target: T2, Protein arginine N-methyltransferase 7 (Homo sapiens) (UniProt Q9NVM4); test: Displacement of 3H-SAM from human PRMT7 at 50 uM in presence of substrate by SPA assay
T2 sequence (whole entry): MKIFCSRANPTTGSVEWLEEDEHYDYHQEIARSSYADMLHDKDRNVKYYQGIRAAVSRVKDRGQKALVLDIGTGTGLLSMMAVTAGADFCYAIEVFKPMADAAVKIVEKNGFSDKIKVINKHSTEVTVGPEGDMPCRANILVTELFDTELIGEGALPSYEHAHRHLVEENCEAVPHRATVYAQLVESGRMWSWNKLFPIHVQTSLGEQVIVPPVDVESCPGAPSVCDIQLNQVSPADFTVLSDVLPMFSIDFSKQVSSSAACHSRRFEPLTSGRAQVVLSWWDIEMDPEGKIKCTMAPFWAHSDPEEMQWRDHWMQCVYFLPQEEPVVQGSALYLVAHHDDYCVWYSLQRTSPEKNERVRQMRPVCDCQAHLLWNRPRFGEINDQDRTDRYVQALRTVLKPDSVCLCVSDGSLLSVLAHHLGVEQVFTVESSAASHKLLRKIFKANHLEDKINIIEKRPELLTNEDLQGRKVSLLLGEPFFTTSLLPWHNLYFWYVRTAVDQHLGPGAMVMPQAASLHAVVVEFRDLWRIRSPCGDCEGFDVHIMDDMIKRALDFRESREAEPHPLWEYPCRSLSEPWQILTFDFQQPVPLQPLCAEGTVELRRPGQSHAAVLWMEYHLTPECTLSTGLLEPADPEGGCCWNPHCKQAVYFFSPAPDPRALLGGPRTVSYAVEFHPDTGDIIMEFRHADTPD

[3] = biological target: T3, Protein arginine N-methyltransferase 8 (Homo sapiens, UniProt Q9NR22); test: Displacement of 3H-SAM from human PRMT8 at 50 uM in presence of substrate by SPA assay
Target sequence in this assay (Q9NR22 2-394 limits assumed): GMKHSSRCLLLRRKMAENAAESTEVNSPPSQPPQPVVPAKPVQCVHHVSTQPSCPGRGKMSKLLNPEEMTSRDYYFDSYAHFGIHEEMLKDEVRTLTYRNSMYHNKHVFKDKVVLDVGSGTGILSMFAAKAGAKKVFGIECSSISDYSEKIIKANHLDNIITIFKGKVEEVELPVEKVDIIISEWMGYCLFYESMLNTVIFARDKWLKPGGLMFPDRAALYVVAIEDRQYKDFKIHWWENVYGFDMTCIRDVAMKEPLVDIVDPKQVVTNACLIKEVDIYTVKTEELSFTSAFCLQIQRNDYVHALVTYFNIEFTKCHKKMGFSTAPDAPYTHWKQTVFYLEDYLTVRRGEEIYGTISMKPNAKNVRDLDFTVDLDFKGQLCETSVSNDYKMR

[4] = biological target: T4, Histone-lysine N-methyltransferase SMYD3 (Homo sapiens) (UniProt Q9H7B4); test: Displacement of 3H-SAM from SMYD3 (unknown origin) using biotinylated-MAP3K2 as substrate at 30 uM incubated for 45 mins by SPA assay relative to control
T4 sequence (whole entry): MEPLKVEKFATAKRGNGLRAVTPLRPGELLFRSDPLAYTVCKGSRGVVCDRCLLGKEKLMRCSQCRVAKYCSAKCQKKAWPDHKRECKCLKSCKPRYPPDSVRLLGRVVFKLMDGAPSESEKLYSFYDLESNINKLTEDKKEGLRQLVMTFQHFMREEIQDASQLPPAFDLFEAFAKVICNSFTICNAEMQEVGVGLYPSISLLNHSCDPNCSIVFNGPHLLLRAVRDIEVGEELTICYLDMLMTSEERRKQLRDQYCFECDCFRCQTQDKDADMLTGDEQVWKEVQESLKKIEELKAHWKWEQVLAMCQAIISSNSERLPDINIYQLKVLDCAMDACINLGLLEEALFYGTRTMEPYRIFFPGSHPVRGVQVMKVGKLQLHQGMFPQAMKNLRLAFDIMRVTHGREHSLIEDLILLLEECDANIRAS

[5] = biological target: T5, Protein arginine N-methyltransferase 9 (Homo sapiens) (UniProt Q6P2P2); test: Displacement of 3H-SAM from human PRMT9 at 50 uM in presence of substrate by SPA assay
T5 sequence (whole entry): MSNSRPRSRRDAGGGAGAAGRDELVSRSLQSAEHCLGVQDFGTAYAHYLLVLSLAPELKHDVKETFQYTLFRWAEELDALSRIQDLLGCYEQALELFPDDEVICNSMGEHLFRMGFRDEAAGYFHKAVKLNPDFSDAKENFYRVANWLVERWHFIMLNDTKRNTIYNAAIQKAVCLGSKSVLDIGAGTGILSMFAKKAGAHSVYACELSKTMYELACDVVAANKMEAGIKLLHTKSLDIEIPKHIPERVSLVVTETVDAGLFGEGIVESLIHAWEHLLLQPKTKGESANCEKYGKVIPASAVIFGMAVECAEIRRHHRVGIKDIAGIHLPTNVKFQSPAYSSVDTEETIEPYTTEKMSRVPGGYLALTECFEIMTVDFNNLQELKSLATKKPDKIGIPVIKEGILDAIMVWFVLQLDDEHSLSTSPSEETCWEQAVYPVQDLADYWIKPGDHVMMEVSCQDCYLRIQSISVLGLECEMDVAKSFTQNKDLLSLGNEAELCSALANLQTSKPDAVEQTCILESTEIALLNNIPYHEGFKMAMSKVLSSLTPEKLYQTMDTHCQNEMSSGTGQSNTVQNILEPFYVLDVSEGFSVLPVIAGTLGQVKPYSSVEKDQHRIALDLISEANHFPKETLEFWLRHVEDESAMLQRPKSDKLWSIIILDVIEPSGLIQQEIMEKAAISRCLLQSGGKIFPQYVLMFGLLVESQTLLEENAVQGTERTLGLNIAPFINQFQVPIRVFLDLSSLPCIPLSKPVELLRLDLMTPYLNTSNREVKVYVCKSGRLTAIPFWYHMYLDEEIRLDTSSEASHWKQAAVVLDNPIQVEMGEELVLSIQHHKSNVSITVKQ

[6] = biological target: Protein arginine N-methyltransferase 5 (Homo sapiens) (UniProt O14744); test: Displacement of 3H-SAM from human PRMT5 at 50 uM in presence of substrate by SPA assay
[7] = biological target: T6, Protein arginine N-methyltransferase 6 (Homo sapiens, UniProt Q96LA8); test: Displacement of 3H-SAM from human PRMT6 at 50 uM in presence of substrate by SPA assay
Target sequence in this assay (Q96LA8 whole entry, looked up): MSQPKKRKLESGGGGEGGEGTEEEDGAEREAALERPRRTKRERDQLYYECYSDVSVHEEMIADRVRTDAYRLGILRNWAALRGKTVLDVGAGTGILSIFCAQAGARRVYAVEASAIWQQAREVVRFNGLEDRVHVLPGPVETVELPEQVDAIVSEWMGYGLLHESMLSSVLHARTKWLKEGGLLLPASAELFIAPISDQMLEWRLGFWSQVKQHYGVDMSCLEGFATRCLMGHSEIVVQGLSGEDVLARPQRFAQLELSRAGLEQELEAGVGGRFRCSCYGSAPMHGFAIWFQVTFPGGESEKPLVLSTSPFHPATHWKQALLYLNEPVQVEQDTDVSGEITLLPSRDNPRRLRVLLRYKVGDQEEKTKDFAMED

[8] = biological target: T7, Histone-arginine methyltransferase CARM1 (Homo sapiens) (UniProt Q86X55); test: Displacement of 3H-SAM from human PRMT4 at 50 uM in presence of substrate by SPA assay
T7 sequence (whole entry): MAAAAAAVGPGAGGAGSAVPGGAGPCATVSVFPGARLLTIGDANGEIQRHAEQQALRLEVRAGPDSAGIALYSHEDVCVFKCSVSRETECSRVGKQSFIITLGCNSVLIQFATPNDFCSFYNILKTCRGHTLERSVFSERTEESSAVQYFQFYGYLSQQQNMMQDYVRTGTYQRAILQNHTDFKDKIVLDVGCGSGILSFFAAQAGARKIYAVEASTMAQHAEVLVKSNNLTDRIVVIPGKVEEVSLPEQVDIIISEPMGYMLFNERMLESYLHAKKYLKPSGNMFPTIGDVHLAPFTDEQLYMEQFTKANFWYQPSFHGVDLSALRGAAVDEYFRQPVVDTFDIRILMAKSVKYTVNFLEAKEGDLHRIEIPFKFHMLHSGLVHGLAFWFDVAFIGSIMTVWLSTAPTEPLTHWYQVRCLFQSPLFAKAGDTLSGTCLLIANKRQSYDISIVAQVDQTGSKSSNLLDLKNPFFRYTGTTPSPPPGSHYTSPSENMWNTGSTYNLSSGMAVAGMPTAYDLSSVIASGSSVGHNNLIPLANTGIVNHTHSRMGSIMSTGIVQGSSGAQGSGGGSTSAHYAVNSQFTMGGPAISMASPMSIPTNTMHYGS

[9] = biological target: T8, Histone-lysine N-methyltransferase SUV39H1 (Homo sapiens) (UniProt O43463); test: Displacement of 3H-SAM from SUV39H1 (unknown origin) using biotinylated-histone H3 peptide as substrate at 30 uM incubated for 45 mins by SPA assay relative to control
T8 sequence (whole entry): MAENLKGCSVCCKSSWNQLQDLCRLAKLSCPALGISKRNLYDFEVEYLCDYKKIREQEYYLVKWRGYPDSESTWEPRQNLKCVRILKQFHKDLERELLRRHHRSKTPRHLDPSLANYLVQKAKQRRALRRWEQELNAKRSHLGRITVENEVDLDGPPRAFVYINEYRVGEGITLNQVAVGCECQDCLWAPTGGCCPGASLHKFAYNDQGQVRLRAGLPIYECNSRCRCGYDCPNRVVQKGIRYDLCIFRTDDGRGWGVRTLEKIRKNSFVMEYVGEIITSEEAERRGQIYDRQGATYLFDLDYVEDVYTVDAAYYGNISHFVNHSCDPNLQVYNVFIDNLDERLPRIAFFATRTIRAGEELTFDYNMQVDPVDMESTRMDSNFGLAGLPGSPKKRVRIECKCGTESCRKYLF

[10] = biological target: Histone-lysine N-methyltransferase, H3 lysine-79 specific (Homo sapiens) (UniProt Q8TEK3); test: Displacement of 3H-SAM from DOT1L (unknown origin) at 30 uM incubated for 1 hr in presence of substrate by SPA assay relative to control
[11] = biological target: Protein arginine N-methyltransferase 1 (Homo sapiens, UniProt Q99873); test: Inhibition of PRMT1 (unknown origin)
[12] = biological target: T9, Histone-arginine methyltransferase CARM1 (Homo sapiens, UniProt Q86X55); test: Inhibition of PRMT4 (unknown origin)
T9 sequence (Q86X55 whole entry): T7 sequence (whole entry)

[13] = biological target: T6, Protein arginine N-methyltransferase 6; test: Inhibition of PRMT6 (unknown origin)
Target sequence in this assay (Q96LA8 whole entry): as the sequence (Q96LA8 whole entry, looked up) above

[14] = biological target: T3, Protein arginine N-methyltransferase 8; test: Inhibition of PRMT8 (unknown origin)
Target sequence in this assay (Q9NR22 whole entry): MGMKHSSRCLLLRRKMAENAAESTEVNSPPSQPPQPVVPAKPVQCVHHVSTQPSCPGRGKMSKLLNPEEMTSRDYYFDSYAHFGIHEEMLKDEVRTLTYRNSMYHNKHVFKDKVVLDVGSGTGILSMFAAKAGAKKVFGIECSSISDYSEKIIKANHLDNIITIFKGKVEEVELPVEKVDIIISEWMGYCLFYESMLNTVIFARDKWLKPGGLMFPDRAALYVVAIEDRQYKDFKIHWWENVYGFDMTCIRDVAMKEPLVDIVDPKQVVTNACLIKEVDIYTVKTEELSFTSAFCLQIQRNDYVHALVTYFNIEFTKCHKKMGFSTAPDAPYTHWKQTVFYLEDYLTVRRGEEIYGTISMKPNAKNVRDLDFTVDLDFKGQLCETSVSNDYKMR

[15] = biological target: T1, Protein arginine N-methyltransferase 3; test: Inhibition of PRMT3 (unknown origin)
Target sequence in this assay (O60678 whole entry): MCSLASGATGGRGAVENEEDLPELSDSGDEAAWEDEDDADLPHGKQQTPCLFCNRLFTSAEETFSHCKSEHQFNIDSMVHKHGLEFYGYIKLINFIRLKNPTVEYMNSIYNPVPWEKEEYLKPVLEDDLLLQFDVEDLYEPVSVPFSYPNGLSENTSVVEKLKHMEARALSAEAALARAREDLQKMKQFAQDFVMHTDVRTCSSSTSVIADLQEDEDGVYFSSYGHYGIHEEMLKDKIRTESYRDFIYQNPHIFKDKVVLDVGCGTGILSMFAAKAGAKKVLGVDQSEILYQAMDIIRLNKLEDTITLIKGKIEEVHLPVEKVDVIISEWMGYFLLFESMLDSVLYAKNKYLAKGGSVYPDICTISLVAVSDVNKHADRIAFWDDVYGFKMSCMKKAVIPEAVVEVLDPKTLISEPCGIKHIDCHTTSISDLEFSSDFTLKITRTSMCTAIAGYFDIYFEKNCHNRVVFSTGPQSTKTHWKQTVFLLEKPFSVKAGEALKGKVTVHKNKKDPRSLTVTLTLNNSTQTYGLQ

Chain of Protein arginine N-methyltransferase 5 (Homo sapiens) (O14744 whole entry): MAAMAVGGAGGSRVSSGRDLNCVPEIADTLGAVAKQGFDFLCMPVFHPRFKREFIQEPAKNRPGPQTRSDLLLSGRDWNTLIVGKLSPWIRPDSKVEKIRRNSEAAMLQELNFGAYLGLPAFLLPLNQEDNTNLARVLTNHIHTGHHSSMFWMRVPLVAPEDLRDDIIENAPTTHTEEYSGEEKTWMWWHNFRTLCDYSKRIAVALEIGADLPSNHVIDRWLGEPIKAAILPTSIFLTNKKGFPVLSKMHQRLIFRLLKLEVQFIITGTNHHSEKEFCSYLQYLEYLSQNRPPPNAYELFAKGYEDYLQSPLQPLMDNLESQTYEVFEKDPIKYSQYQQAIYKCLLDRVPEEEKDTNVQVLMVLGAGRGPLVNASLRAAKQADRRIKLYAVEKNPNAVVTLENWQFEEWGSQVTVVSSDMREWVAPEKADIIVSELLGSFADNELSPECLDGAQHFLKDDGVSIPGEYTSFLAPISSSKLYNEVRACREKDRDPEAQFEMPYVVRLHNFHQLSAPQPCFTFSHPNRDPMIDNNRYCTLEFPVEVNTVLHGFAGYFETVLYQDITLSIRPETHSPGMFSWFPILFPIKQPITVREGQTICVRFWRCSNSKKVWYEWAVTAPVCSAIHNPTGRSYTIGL
Chain of Histone-lysine N-methyltransferase, H3 lysine-79 specific (Homo sapiens) (Q8TEK3 whole entry, looked up): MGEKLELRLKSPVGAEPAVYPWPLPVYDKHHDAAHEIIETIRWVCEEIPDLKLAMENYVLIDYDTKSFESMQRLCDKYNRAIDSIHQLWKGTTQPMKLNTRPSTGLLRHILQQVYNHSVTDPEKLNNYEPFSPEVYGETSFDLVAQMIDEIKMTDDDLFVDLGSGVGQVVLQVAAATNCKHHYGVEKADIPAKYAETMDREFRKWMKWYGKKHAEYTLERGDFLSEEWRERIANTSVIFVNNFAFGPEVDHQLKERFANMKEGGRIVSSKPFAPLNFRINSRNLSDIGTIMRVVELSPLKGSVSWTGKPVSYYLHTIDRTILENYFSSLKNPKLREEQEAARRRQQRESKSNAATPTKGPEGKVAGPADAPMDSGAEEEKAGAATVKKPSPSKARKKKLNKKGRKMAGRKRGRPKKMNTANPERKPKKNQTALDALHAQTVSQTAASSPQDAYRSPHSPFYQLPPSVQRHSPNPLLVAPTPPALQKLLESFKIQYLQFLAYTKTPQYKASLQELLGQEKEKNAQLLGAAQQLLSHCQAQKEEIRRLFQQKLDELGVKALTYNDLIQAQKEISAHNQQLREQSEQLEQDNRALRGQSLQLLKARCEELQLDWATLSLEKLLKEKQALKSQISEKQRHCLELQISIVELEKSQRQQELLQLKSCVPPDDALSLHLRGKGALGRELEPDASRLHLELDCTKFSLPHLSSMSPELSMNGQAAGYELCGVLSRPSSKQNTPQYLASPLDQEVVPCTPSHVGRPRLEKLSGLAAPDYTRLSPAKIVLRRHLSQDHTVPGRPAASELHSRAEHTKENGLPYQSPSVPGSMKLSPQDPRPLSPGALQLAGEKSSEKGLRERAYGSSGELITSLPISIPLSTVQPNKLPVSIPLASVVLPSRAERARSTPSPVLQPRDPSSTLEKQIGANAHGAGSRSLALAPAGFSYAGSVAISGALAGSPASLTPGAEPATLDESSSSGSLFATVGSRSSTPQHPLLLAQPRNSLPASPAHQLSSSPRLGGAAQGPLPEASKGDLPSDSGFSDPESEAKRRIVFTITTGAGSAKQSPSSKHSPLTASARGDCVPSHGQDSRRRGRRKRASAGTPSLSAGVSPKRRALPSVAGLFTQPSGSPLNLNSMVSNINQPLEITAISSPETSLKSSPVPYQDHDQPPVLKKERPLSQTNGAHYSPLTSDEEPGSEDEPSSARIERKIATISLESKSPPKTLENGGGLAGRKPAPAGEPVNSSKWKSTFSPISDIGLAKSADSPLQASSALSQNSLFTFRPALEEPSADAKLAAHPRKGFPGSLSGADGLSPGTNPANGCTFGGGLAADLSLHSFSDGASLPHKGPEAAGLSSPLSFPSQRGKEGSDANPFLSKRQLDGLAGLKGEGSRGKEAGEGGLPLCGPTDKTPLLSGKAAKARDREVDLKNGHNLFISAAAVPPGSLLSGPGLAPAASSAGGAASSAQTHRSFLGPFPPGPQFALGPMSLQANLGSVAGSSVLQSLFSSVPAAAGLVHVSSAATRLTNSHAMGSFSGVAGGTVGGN
Chain of Protein arginine N-methyltransferase 1 (Q99873 whole entry): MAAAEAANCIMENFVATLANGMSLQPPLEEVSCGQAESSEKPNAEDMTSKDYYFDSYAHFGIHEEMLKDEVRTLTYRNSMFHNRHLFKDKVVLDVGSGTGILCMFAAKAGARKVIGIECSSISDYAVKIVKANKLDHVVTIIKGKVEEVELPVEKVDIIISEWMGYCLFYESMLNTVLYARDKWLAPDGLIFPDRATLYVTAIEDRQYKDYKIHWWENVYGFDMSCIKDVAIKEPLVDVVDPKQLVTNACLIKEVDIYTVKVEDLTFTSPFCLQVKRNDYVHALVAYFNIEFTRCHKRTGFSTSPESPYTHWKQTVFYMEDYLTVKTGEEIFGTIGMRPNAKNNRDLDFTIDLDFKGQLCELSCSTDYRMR

Row | inhibition [1] | inhibition [2] | inhibition [3] | inhibition [4] [%] | inhibition [5] | inhibition [6] | inhibition [7] | inhibition [8] | inhibition [9] [%] | inhibition [10] [%] | IC50 [11] [nM] | IC50 [12] [nM] | IC50 [13] [nM] | IC50 [14] [nM] | IC50 [15] [nM] | Compound
1 | Active | Active | Active | < 25 | Active | Active | Active | Active | < 25 | 0 |  |  |  |  |  | CN(C)CCCNC(=O)c1ccc2c(Nc3ccc(CN)cc3)ncnc2c1
2 |  |  |  |  |  |  |  |  |  |  | 30 | 83 | 4 | 5 | 119 | CC(C)Oc1ccc(-c2c[nH]cc2CNCCN)cc1
